Here are results for four compounds from patent publication US20100304426A1, “Analytical Methods for Measuring Synthetic Progesterone” (priority 2009, published 2010).

Molecules are shown by their SMILES. Read-outs that look alike come from different tables or passages of the source. Marks after values point to notes of the source that are not given here.

Broadly, the Tmax is the time from dosing to the highest level. Usually AUC stands for the area under the concentration-time curve, a measure of exposure. The term AUC(0-t) denotes exposure summed from dosing to a finite time, without extrapolation to infinity.

One data set in a line: clinical. Conditions: human, in vivo, 200 mg. The source says: A definitive low-level LC/MS/MS analytical method to determine the concentrations of synthetic progesterone in human plasma is described. Instrumentation used in this example includes an Applied Biosystems Q-Trap 4000 system using Analyst® 1.4.2 software, Shimadzu LC-20AD HPLC pumps and a LEAP HTC PAL Autosampler. As understood by a person skilled in the art, various similar or equivalent pieces of instrumentation can be used to perform this method. It is also recognized that improved instrumentation can be introduced utilizing equivalent or similar principles of analysis to perform this method similarly or better by being faster, more sensitive, more accurate or more robust relative to the instrumentation used herein. Analyze the pregnant female plasma isotopic ratio standard seven consecutive times. Analyze the synthetic isotopic ratio standard at least seven consecutive times. Analyze the plate beginning with the first calibration sample. Using the data from the seven injections of pregnant female plasma calculate the average area for the progesterone transition and for the progesterone isotope transition. Calculate the ratio by dividing the average area of the progesterone peak by the average area of the isotope peak. This is the natural progesterone ratio. Using the data from the seven injections of the Synthetic Standard calculate the average area for the progesterone transition and for the progesterone isotope transition. Calculate the ratio by dividing the average area of the progesterone peak by the average area of the isotope peak. This is the synthetic progesterone ratio. […] In addition, data presented herein are for fasted post-menopausal women. Fasting can affect progesterone uptake. In this example, healthy, fasted, post-menopausal women orally ingest 1×200 mg progesterone. Plasma samples are obtained from 2 h pre-dose to 24 h post-dose. […] Cmax is the maximum observed concentration and Tmax the time at which Cmax took place. Clast is the value of the last measurable concentration, and […].

On the set-up of data set [1]: AUC / Cmax: unit not given beside the values. Conditions: from package insert, total progesterone, cited from earlier work.
For data set [2] the following is noted: reported; cited from earlier work.

As to `CC(=O)[C@H]1CC[C@H]2[C@@H]3CCC4=CC(=O)CC[C@]4(C)[C@H]3CC[C@]12C` [Endogenous Progesterone], in the data set “clinical” (po), the AUClast was 3.84 ng·h/mL and the time to peak (Tmax) was 2.33^a h.

With `CC(=O)[C@H]1CC[C@H]2[C@@H]3CCC4=CC(=O)CC[C@]4(C)[C@H]3CC[C@]12C` [PROMETRIUM, pregn-4-ene-3,20-dione], the AUC in the data set “clinical” (female) was 1.6 ng·h/mL; in data set [1] (100 mg after 5 daily doses), 43.3 + 30.8; in data set [1] (300 mg after 5 daily doses), 175.7 + 170.3. In addition, the Cmax in “clinical” (female) was 3.1 ± 2.3; in the data set “clinical” (female, Cmax), 1.05 ng/mL; in the data set “clinical” (female, po, Cmax), 0.62 to 1.6 ng/mL; in data set [1] (100 mg after 5 daily doses), 17.3 + 21.9; in data set [1] (200 mg after 5 daily doses) it was 38.1 + 37.8; in data set [1] (300 mg after 5 daily doses), 60.6 + 72.5. For the same compound, the Tmax in the data set “clinical” (female, po) is 2.63 h; in data set [1] (200 mg after 5 daily doses) it was 2.3 + 1.4; in data set [1] (300 mg after 5 daily doses), 1.7 + 0.6. For the same compound, the AUC(0-t) in the data set “clinical” (female, po, AUC0-4 h) is 1.01 to 2.37 ng·h/mL; in “clinical” (female, po, AUClast) it was 2.11 ng·h/mL.

Take `CC(=O)[C@H]1CC[C@H]2[C@@H]3CCC4=CC(=O)CC[C@]4(C)[C@H]3CC[C@]12C` [Total Progesterone]: in “clinical” (po), the AUClast is 6.47 ng·h/mL and the Tmax turned out to be 2.00 h.

As for `CC(=O)[C@H]1CC[C@H]2[C@@H]3CCC4=CC(=O)CC[C@]4(C)[C@H]3CC[C@]12C` [progesterone], the “half life in the circulation” value in data set [2] is reported as “only a few minutes”.
